Experimental data: patent US20240239755A1, “SUBSTITUTED PYRIDAZINONES, SALTS OR N-OXIDES THEREOF AND THEIR USE AS HERBICIDALLY ACTIVE SUBSTANCES” (Bayer Aktiengesellschaft, priority 2021, published 2024)

Legend:
Format in all cases: in vivo
[1] = test system: Amaranthus retroflexus (AMARE); experiment: Herbicidal pre-emergence action, 1280 g/ha (Table A11); conditions: visual grading after ca. 3 weeks vs untreated controls
Text: (§1) Seeds of mono- and dicotyledonous weed plants were sown in plastic pots (double sowings with one species of mono- and one species of dicotyledonous weed plants per pot), in sandy loam, and covered with soil. The compounds according to the invention, formulated in the form of wettable powders (WP) or as emulsifiable concentrates (EC), were applied to the surface of the covering soil as an aqueous suspension or as an emulsion, with the addition of 0.5% of an additive, at an application rate of 600 litres of water per hectare (converted). Following treatment, the pots were placed in a greenhouse and kept under optimum growth conditions for the test plants. The visual grading of the damage to the test plants was carried out after ca. 3 weeks in comparison to untreated controls (herbicidal effect in percent (%): 100% effect=plants have died, 0% effect=as control plants). Tables A1 to A11 below, show the effects of selected compounds of the general formula (I) according to Table 1 on various harmful plants and an application rate corresponding to 1280 g/ha obtained by the experimental procedure mentioned above.

[2] = test system: Stellaria media (STEME); experiment: Herbicidal post-emergence action, 1280 g/ha (Table B9); conditions: visual assessment after ca. 3 weeks vs untreated controls
Text: (§2) Seeds of mono- and dicotyledonous weed plants were sown in plastic pots (double sowings with one species of mono- and one species of dicotyledonous weed plants per pot), in sandy loam, covered with soil and grown under controlled growth conditions. 2 to 3 weeks after sowing, the test plants were sprayed in the single-leaf stage. The compounds according to the invention, formulated in the form of wettable powders (WP) or as emulsifiable concentrates (EC), were sprayed onto the green plant parts as an aqueous suspension or as an emulsion, with the addition of 0.5% of an additive, at an application rate of 600 litres of water per hectare (converted). The test plants were placed in the greenhouse for ca. 3 weeks under optimum growth conditions, and then the effect of the preparations was assessed visually in comparison with untreated controls (herbicidal effect in percent (%): 100% effect=plants have died, 0% effect=as control plants). Tables B1 to B11 below, show the effects of selected compounds of the general formula (I) according to Table 1 on various harmful plants using an application rate corresponding to 1280 g/ha obtained by the experimental procedure mentioned above.

[3] = test system: Amaranthus retroflexus (AMARE); experiment: Herbicidal post-emergence action, 1280 g/ha, AMARE; conditions: visual grading vs untreated controls
Text: as §2, with “plants).” for “plants). Tables B1 to B11 below, show the effects of selected compounds of the general formula (I) according to Table 1 on various harmful plants using an application rate corresponding to 1280 g/ha obtained by the experimental procedure mentioned above.”
(§3) Tables B1 to B11 below, show the effects of selected compounds of the general formula (I) according to Table 1 on various harmful plants using an application rate corresponding to 1280 g/ha obtained by the experimental procedure mentioned above.

[4] = test system: Matricaria inodora (MATIN); experiment: Herbicidal pre-emergence action, 1280 g/ha (Table A6); conditions: visual grading after ca. 3 weeks vs untreated controls
Text: as §1

[5] = test system: Abutilon theophrasti (ABUTH); experiment: Herbicidal post-emergence action, 1280 g/ha (Table B1); conditions: visual assessment after ca. 3 weeks vs untreated controls
Text: as §2

[6] = test system: Matricaria inodora (MATIN); experiment: Herbicidal post-emergence action, 1280 g/ha (Table B6); conditions: visual assessment after ca. 3 weeks vs untreated controls
Text: as §2

[7] = test system: Lolium rigidum (LOLRI); experiment: Herbicidal pre-emergence action, 1280 g/ha (Table A5); conditions: visual grading after ca. 3 weeks vs untreated controls
Text: as §1

[8] = test system: Stellaria media (STEME); experiment: Herbicidal pre-emergence action, 1280 g/ha (Table A9); conditions: visual grading after ca. 3 weeks vs untreated controls
Text: as §1

[9] = test system: Kochia scoparia (KCHSC); experiment: Herbicidal post-emergence action, 1280 g/ha (Table B4); conditions: visual assessment after ca. 3 weeks vs untreated controls
Text: as §2

[10] = test system: Stellaria media (STEME); experiment: Herbicidal pre-emergence action, 320 g/ha, STEME; conditions: visual grading after ca. 3 weeks
Text: as §1, with “plants).” for “plants). Tables A1 to A11 below, show the effects of selected compounds of the general formula (I) according to Table 1 on various harmful plants and an application rate corresponding to 1280 g/ha obtained by the experimental procedure mentioned above.”
Tables C1 to C6 below, show the effects of selected compounds of the general formula (I) according to Table 1 on various harmful plants using an application rate corresponding to 320 g/ha obtained by the experimental procedure mentioned above.

[11] = test system: Abutilon theophrasti (ABUTH); experiment: Herbicidal post-emergence action, 320 g/ha, ABUTH; conditions: visual grading after ca. 3 weeks
Text: as §2, with “plants).” for “plants). Tables B1 to B11 below, show the effects of selected compounds of the general formula (I) according to Table 1 on various harmful plants using an application rate corresponding to 1280 g/ha obtained by the experimental procedure mentioned above.”
(§4) Tables D1 to D8 below, show the effects of selected compounds of the general formula (I) according to Table 1 on various harmful plants using an application rate corresponding to 320 g/ha obtained by the experimental procedure mentioned above.

[12] = test system: Veronica persica (VERPE); experiment: Herbicidal post-emergence action, 1280 g/ha, VERPE; conditions: visual grading vs untreated controls
Text: as §2, with “plants).” for “plants). Tables B1 to B11 below, show the effects of selected compounds of the general formula (I) according to Table 1 on various harmful plants using an application rate corresponding to 1280 g/ha obtained by the experimental procedure mentioned above.”
as §3

[13] = test system: Stellaria media (STEME); experiment: Herbicidal post-emergence action, 320 g/ha, STEME; conditions: visual grading after ca. 3 weeks
Text: as §2, with “plants).” for “plants). Tables B1 to B11 below, show the effects of selected compounds of the general formula (I) according to Table 1 on various harmful plants using an application rate corresponding to 1280 g/ha obtained by the experimental procedure mentioned above.”
as §4

[14] = test system: Amaranthus retroflexus (AMARE); experiment: Herbicidal post-emergence action, 320 g/ha, AMARE; conditions: visual grading after ca. 3 weeks
Text: as §2, with “plants).” for “plants). Tables B1 to B11 below, show the effects of selected compounds of the general formula (I) according to Table 1 on various harmful plants using an application rate corresponding to 1280 g/ha obtained by the experimental procedure mentioned above.”
as §4

SMILES | herbicidal effect AMARE [1] [%] | herbicidal effect STEME [2] [%] | herbicidal effect AMARE [3] [%] | herbicidal effect MATIN [4] [%] | herbicidal effect ABUTH [5] [%] | herbicidal effect MATIN [6] [%] | herbicidal effect LOLRI [7] [%] | herbicidal effect STEME [8] [%] | herbicidal effect KCHSC [9] [%] | herbicidal effect STEME [10] [%] | herbicidal effect ABUTH [11] [%] | herbicidal effect VERPE [12] [%] | herbicidal effect STEME [13] [%] | herbicidal effect AMARE [14] [%]
Cc1ccc(C2CC2)c(Oc2c(O)c(C)nn(C)c2=O)c1 [Example I-039] | 90 | 90 | 90 | – | – | – | – | – | – | – | – | – | – | –
CCOC(=O)Oc1c(C)nn(C)c(=O)c1Oc1cc(C)ccc1C1CC1 [Example I-040] | – | – | 90 | – | – | – | – | – | – | – | – | – | – | –
CCOC(=O)Oc1c(C)nn(C)c(=O)c1Oc1cccc(C)c1C1CC1 [Example I-066] | 100 | 100 | – | 90 | 90 | 90 | – | – | – | – | – | – | – | –
Cc1nn(C)c(=O)c(Oc2cccc(F)c2C2CC2)c1O [Example I-073] | – | 100 | 90 | 90 | 100 | 90 | 90 | 90 | 90 | 90 | 100 | – | – | –
Cc1nn(C)c(=O)c(Oc2ccccc2OC(F)F)c1O [Example I-082] | – | 100 | 90 | 90 | 100 | 90 | 90 | 90 | – | – | 90 | 90 | 90 | –
Cc1nn(C)c(=O)c(Oc2c(F)cccc2C2CC2)c1O [Example I-084] | – | 90 | 90 | – | 90 | – | 90 | – | 90 | – | – | 90 | – | 90
Cc1nn(C)c(=O)c(Oc2cc(F)ccc2Br)c1OC(=O)C(C)C [Example I-089] | – | – | 100 | 100 | 90 | 90 | 90 | 90 | – | – | – | – | – | –
Cc1nn(C)c(=O)c(Oc2cc(F)cc(F)c2Br)c1O [Example I-090] | 90 | 90 | 90 | 90 | – | 90 | 90 | 100 | – | 90 | – | – | – | –
Cc1nn(C)c(=O)c(Oc2cc(F)cc(F)c2Br)c1OC(=O)C(C)C [Example I-099] | – | 90 | 90 | 90 | 100 | 90 | – | 90 | 90 | 90 | – | 90 | 90 | –
Cc1nn(C)c(=O)c(Oc2cc(Cl)cc(Cl)c2Cl)c1OC(=O)C(C)C [Example I-100] | – | 100 | 90 | – | 90 | – | 90 | 100 | – | 100 | – | – | 90 | –
